Columns and labels:
[1] = Metabolic stability with human hepatic microsomes; assay type: in vitro ADME; conditions: human hepatic microsomes 0.1 mg protein/mL, 0.1 μmol/L test compound, after 30 minutes, 37° C.
Method: The specific method is as follows.
• (1) Fifty microliter-portions were taken from 0.2 μmol/L test compound diluted with β-NADPH solution. • (2) Fifty microliters of 0.2 mg protein/mL human hepatic microsome solution was added to each (except for a sample with a reaction time of 0 minutes). • (3) Incubation was performed with shaking at 37° C. for 30 minutes (concentration in reaction sample: 0.1 μmol/L test compound, 0.1 mg protein/mL human hepatic microsome). • (4) After incubation, 400 μL of methanol was added to terminate the reaction. • (5) To the sample with a reaction time of 0 minutes, 50 μL of 0.2 mg protein/mL hepatic microsome solution was added. • (6) Each of the samples from (4) and (5) was left to stand at −20° C. for 30 minutes or longer, and then centrifuged at 4° C. and 3,000 rpm for approximately 10 minutes. • (7) The supernatant was subjected to measurement with LC/MS/MS, and, based on the peak area obtained for the unchanged form, the residual rate (%) of the unchanged form was calculated as that for the case with an incubation time of 0 minutes was assumed as 100%.

[2] = target: hERG (human Ether-a-go-go Related Gene) channel (Homo sapiens, UniProt Q12809); assay: hERG channel inhibition effect (whole-cell patch clamp); assay type: cell-based; conditions: 22 to 25° C.
Sequence of hERG (human Ether-a-go-go Related Gene) channel (Q12809 whole entry): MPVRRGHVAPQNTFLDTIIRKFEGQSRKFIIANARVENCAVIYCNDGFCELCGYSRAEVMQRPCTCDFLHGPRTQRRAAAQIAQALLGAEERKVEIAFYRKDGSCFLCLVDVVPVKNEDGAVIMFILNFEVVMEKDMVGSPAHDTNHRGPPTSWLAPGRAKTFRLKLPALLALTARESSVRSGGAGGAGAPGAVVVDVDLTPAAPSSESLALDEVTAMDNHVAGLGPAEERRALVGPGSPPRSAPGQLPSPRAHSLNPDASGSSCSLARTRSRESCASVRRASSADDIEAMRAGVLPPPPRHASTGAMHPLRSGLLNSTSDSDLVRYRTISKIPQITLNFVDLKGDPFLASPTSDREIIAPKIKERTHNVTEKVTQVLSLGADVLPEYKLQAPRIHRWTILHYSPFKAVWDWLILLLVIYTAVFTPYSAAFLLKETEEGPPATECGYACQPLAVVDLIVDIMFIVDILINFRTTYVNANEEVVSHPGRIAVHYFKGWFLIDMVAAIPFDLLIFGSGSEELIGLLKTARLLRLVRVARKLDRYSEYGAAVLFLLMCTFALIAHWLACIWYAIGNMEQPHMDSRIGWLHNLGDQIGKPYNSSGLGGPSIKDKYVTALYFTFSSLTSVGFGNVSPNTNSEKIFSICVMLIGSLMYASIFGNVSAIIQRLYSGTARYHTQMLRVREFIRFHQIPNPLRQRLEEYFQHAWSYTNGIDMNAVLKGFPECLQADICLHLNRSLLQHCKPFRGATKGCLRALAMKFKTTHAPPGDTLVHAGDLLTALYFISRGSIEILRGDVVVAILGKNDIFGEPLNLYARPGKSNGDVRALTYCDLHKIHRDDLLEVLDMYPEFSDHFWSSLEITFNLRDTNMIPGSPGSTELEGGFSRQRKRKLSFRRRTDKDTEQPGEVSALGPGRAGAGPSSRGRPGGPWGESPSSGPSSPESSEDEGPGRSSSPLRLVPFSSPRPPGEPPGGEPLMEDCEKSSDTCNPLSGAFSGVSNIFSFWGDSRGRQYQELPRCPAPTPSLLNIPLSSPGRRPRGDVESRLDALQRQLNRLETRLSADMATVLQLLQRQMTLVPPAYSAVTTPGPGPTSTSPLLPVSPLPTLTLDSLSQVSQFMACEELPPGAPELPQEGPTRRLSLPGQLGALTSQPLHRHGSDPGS
Method: The hERG (human Ether-a-go-go Related Gene) channel inhibition effect of each test compound was examined with the following patch clamp method.
Under a fixed potential, an hERG current that passed through the whole cell membrane was recorded with the whole-cell patch clamp method.
To confirm the hERG current, the holding potential was set to −80 mV, and depolarizing pulses at −50 mV for 110 msec and at 20 mV for 4 sec and a subsequent repolarizing pulse at −50 mV for 2 sec were provided at a frequency of once per 15 seconds. After the stabilization of the hERG tail current obtained was confirmed, an application was initiated. The pulses were continuously provided also during the application.
The sampling frequency was set to 5 kHz, and Lowpass Filter was applied at 2 kHz. […]
hERG currents were measured by using an amplifier for patch clamping (Axopatch 200B, Molecular Devices, LLC), and electric signals obtained were recorded in a computer via recording/analysis software for patch clamping (pCLAMP 10, Molecular Devices, LLC).
The maximum tail current value was determined on the basis of the current value with the depolarizing pulse at −50 mV for 110 msec, and the change rate (suppression rate) 5 minutes after the initiation of application to the maximum tail current value before application of the test compound was calculated.

[3] = target: T1, human recombinant ALDH2 enzyme (Homo sapiens, UniProt P05091); assay: ALDH2 activation effect (acetaldehyde oxidation rate, PicoProbe Aldehyde dehydrogenase Activity Assay Kit); assay type: biochemical
T1 construct: purchased BioVision Inc
T1 sequence (P05091 18-517): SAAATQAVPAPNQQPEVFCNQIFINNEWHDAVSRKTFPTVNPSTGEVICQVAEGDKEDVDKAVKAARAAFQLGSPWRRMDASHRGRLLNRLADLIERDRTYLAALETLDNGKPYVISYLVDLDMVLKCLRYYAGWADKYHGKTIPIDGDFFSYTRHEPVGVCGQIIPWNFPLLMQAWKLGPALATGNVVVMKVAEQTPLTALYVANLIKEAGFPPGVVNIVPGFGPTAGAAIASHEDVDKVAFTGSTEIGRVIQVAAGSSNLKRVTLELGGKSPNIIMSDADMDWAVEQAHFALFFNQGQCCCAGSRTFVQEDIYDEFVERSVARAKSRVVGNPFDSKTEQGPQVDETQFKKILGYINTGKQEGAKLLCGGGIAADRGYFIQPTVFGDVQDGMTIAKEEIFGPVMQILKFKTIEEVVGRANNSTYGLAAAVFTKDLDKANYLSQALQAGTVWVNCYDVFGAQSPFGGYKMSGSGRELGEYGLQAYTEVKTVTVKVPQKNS
Method: The activation effect of each test compound on the acetaldehyde oxidation rate of ALDH2 was measured with the following method. A test was conducted by using a commercially available PicoProbe™ Aldehyde dehydrogenase Activity Assay Kit (manufactured by BioVision Inc.) with reference to an instruction attached to the product under the following conditions. To each well of a 384-well plate, the following (1) to (3) were sequentially added with a pipette: • (1) 10 μL of solution obtained by dissolving and diluting a human recombinant ALDH2 enzyme (manufactured by BioVision Inc.) with ALDH assay Buffer to reach 3-μg/mL; • (2) 10 μL of 30 μM or 90 μM test compound solution (with 3% DMSO) prepared by using ALDH assay Buffer; and • (3) 10 μL of Reaction mix composed with ratio of 8.6 μL of ALDH assay Buffer, 0.6 μL of PicoProbe, 0.3 μL of Substrate Mix, and 1.5 μL of Acetaldehyde.
Before addition of (3), incubation was performed at room temperature for 5 minutes. After addition of (3), fluorescence intensity was measured at room temperature every 2.5 minutes over a period of 180 minutes by using an EnSight (manufactured by PerkinElmer Inc.). Wavelengths of 535 nm and 587 nm were used for fluorescence intensities of excitation and -emission, respectively.

[4] = Metabolic stability with mouse hepatic microsomes; assay type: in vitro ADME; conditions: for Residual rate (%) of unchanged form: mouse hepatic microsomes, after 30 minutes, 37° C., NADPH
Method: Metabolic stability in mouse hepatic microsomes was evaluated with the following method.
• (1) Mouse hepatic microsomes: 20 mg/mL • (2) Test compound: 1.1 mM DMSO solution • (3) Potassium phosphate buffer solution: 66.7 mM (pH 7.4) • (4) NADPH solution: 10 mM in potassium phosphate buffer solution • (5) Quenching solution: 0.5% formic acid-acetonitrile solution with warfarin as internal standard substance 2. Method
Into a propylene tube, 971.5 μL of the potassium phosphate buffer solution and 27.5 μL of the mouse hepatic microsomes were put and suspended. Thereto, 1 μL of a test compound was added, and 180 μL was taken from this mixture and transferred into another tube. The mixture was preincubated at 37° C. for 5 minutes, and 20 μL of the NADPH solution (for the case with an incubation time of 30 minutes) or 20 μL of the potassium phosphate buffer solution (for the case with an incubation time of 0 minutes) was then added thereto. After incubation, 200 μL of the quenching solution was added to terminate the reaction. Subsequently, centrifugation was performed at 3220×g for 20 minutes, and the concentration of the unchanged form of the test compound in 200 μL of the supernatant was measured with LC-MS/MS. On the basis of the peak area obtained for the unchanged form, the residual rate (%) of the unchanged form was calculated as that for the case with an incubation time of 0 minutes was assumed as 100%.

[5] = concentration of test compound 10 μM
[6] = concentration of test compound 30 μM

Structure (SMILES)	Residual rate (%) of unchanged form [1] [%]	IC50 [2] [µM]	acetaldehyde oxidation rate (rate with no test compound assumed as 100%) [3, 5] [%]	acetaldehyde oxidation rate (rate with no test compound assumed as 100%) [3, 6] [%]	metabolic stability in mouse hepatic microsomes (in words) [4]	Residual rate (%) of unchanged form [4] [%]
COCc1ccc(CNC(=O)c2cc(-c3ncccc3C(C)O)ccc2F)cc1F (racemic) [Example 2, Racemic 2-fluoro-N-(3-fluoro-4-(methoxymethyl)benzyl)-5-(3-(1-hydroxyethyl)pyridin-2-yl)benzamide]	87	> 30	127	166	confirmed to have stability	68
COCc1ccc(CNC(=O)c2cc(-c3ncccc3C(C)O)ccc2F)cc1F (single isomer, unassigned) [Example 3, Chiral 2-fluoro-N-(3-fluoro-4-(methoxymethyl)benzyl)-5-(3-(1-hydroxyethyl)pyridin-2-yl)benzamide]			137	176		64
COCc1ccc(CNC(=O)c2cc(-c3ncccc3C(C)O)ccc2F)cc1F (single isomer, unassigned) [Example 4, Chiral 2-fluoro-N-(3-fluoro-4-(methoxymethyl)benzyl)-5-(3-(1-hydroxyethyl)pyridin-2-yl)benzamide]			131	155		60
O=C(NCc1ccc2c(c1)OCO2)c1c(Cl)cccc1Cl [Comparative Example 1, reference compound]			149	176		<1
COc1ccc(CNC(=O)c2cc(-c3ncccc3CO)ccc2OCC2CC2)cc1F [Comparative Example 2, reference compound]						6
COCc1ccc(CNC(=O)c2c(Cl)cccc2Cl)cc1F [Comparative Example 3, reference compound]						1
COCc1ccc(CNC(=O)c2c(F)cccc2Br)cc1F [Comparative Example 4, reference compound]						<1
COCc1ccc(CNC(=O)c2c(F)cccc2Cl)cc1F [Comparative Example 5, reference compound]						<1
COCc1ccc(CNC(=O)c2c(F)cccc2F)cc1F [Comparative Example 6, reference compound]						1
CC(O)c1cccnc1-c1ccc(F)c(C(=O)NCc2ccc(COC(F)F)c(F)c2)c1 (stereo not drawn) [Example 5, N-(4-((Difluoromethoxy)methyl)-3-fluorobenzyl)-2-fluoro-5-(3-(1-hydroxyethyl)pyridin-2-yl)benzamide]	72		124	146	confirmed to have stability	52
COCc1ccc(CNC(=O)c2cc(-c3ncccc3COC)ccc2F)cc1F [Example 6, 2-Fluoro-N-(3-fluoro-4-(methoxymethyl)benzyl)-5-(3-(methoxymethyl)pyridin-2-yl)benzamide]	75		139	161	confirmed to have stability	24
COCc1ccc(CNC(=O)c2cc(-c3n[nH]cc3CO)ccc2Cl)cc1F [Example 7, 2-Chloro-N-(3-fluoro-4-(methoxymethyl)benzyl)-5-(4-(hydroxymethyl)-1H-pyrazol-3-yl)benzamide]			157	170		74

Reference: patent US12509423B2, “Compound, aldehyde dehydrogenase 2 activating agent, pharmaceutical composition, and therapeutic and/or prophylactic drug” (Alchemedicine, Inc., priority 2020, dated 2025)
